In one test the target is T1, JAK2 (Homo sapiens, UniProt O60674).
T1 construct: purchased Carna 08-045
The test is described as follows: In vitro activity test of JAK2 kinase (Caliper EZ Reader conversion assay). Particulars: enzyme activity, 10 concentrations from 1000 nM, 3-fold dilution. It counts as biochemical. As for the experimental part:
(§1) In Vitro Activity Test of JAK1 and JAK2 Kinases
(§2) • Centrifuge (manufacturer: Eppendorf, model: 5430) • ELISA Instrument (Manufacturer: Perkin Elmer, Model: Caliper EZ Reader 1I) • Echo 550 (Manufacturer: Labcyte, Model: Echo 550)
(§3) (1) Prepare 1 Kinase buffer.
(§4) (2) Compound concentration gradient preparation: The test compound was tested at 1000 nM, 3-fold dilution, 10 concentrations, two-well assay, and configured to a 100-fold final concentration in a 384-well plate. 250 nl of the test compound was then transferred to the 384 reaction plate using Echo550. 250 nl of 100% DMSO was added to each of the negative and positive control wells.
(§5) (3) Prepare 2.5 times the final concentration of kinase solution with 1×Kinase buffer.
(§6) (4) Add 10 μL of 2.5 times the final concentration of kinase solution to the compound wells and 10 μL of 1×Kinase buffer to the negative control wells.
(§7) (5) Centrifuge at 1000 rpm for 30 seconds, mix well with shaking, and incubate at room temperature for 10 minutes.
(§8) (6) Prepare a 25/15-fold final concentration of mixture of ATP and Kinase substrate with 1×Kinase buffer.
(§9) (7) Add 15 μL of a mixture of 25/15 times the final concentration of ATP and substrate to start the reaction.
(§10) (8) Centrifuge the 384-well plate at 1000 rpm for 30 seconds, mix well with shaking, and incubate at room temperature for an appropriate amount of time.
(§11) (9) Stop the kinase reaction by adding 30 μL of termination solution, centrifuge at 1000 rpm for 30 seconds, and mix well with shaking.
(§12) (10) Read the conversion rate with Caliper EZ Reader.
(§13) where: Conversion %_sample is the conversion rate reading of the sample-, Conversion %_min: the average value of the negative control wells, representing the conversion reading of the wells without enzyme activity: Conversion %-max: the average value of the positive control wells, representing the conversion reading of the wells without compound inhibition.
(§14) The log value of concentration was used as the X-axis and the percentage inhibition as the Y-axis, and the function of the analytical software GraphPad Prism 5; log(inhibitor) vs. response -Variable slope, was used to lit dose-effect curves to obtain the IC50) values of each compound on enzyme activity.
(§15) The formula is Y=Bottom+(Top-Bottom)/(1+10^((LogIC50-X)*HillSlope))
(§16) The 1C50 data are specified in Table 1.

The target of another test is T2, JAK1 (Homo sapiens, UniProt P23458).
T2 construct: purchased Carna 08-114
T2 sequence (P23458 whole entry, species assumed): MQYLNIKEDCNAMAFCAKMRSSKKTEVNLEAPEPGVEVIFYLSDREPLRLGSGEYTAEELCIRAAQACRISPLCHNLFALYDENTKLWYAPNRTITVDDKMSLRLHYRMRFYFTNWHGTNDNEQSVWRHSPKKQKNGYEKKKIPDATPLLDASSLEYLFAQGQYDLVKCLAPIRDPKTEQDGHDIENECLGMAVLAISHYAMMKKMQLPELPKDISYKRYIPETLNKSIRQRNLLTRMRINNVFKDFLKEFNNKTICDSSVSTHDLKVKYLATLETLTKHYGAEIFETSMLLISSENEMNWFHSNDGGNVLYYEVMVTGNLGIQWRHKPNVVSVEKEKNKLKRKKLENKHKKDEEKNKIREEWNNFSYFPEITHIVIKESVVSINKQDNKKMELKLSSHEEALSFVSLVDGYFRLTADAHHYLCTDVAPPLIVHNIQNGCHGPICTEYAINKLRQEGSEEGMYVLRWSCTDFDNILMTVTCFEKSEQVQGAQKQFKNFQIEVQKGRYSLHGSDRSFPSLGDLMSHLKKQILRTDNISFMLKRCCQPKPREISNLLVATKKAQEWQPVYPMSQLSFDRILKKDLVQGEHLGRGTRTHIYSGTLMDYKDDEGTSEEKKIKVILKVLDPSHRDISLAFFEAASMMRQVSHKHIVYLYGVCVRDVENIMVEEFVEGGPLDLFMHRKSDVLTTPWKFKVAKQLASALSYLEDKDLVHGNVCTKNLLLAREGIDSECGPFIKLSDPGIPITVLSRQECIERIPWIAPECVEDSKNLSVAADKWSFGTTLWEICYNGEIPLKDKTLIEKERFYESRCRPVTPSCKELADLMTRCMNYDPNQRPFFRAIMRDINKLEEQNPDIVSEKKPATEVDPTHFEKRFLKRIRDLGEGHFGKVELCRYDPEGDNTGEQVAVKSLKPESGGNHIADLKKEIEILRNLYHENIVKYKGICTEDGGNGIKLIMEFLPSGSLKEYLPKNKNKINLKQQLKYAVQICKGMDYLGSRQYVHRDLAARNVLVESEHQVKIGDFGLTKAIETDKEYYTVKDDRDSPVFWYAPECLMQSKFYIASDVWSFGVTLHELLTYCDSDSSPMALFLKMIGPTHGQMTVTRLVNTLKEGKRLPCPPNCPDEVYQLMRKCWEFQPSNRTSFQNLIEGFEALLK
The test is described as follows: In vitro activity test of JAK1 kinase (Caliper EZ Reader conversion assay). The class given is biochemical. The conditions noted are these: enzyme activity, 10 concentrations from 1000 nM, 3-fold dilution. As for the experimental part: as §1, §2, §3, §4, §5, §6, §7, §8, §9, §10, §11, §12, §13, §14, §15, §16

T1 sequence (O60674 whole entry, species assumed): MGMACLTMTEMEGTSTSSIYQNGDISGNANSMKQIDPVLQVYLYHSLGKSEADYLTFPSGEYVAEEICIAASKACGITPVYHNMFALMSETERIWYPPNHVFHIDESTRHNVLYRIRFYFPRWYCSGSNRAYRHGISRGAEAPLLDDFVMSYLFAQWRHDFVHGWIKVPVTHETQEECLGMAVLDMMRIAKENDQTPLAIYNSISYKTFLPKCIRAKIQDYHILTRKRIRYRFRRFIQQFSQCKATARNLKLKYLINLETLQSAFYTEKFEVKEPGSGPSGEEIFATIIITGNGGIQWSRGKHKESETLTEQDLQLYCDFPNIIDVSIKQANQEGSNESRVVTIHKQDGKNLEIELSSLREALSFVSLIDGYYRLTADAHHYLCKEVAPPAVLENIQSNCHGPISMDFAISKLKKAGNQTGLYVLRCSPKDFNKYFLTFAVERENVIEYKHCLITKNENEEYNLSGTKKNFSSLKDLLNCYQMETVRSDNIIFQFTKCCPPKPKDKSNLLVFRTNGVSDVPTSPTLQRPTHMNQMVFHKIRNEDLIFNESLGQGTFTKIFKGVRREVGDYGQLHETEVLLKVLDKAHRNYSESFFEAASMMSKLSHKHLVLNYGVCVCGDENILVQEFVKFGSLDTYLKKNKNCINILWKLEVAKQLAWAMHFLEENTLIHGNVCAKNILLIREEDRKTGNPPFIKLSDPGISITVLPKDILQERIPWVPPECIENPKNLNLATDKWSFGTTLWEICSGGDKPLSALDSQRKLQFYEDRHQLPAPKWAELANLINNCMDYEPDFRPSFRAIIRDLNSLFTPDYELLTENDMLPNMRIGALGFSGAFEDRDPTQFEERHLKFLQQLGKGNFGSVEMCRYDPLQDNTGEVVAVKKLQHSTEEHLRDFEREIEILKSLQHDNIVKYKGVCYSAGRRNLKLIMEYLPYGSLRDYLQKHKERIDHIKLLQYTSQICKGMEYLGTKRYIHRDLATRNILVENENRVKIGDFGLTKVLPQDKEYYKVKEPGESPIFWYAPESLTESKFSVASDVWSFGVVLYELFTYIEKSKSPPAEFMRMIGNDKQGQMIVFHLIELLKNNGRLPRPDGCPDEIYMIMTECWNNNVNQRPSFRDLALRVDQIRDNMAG

On to `C[C@@H](O)c1nc2cnc3[nH]ncc3c2n1[C@H]1CCN(CCCC(F)(F)F)C1` [LXS90, (R)-1-(1-((S)-1-(4,4,4-trifluorobutyl)pyrrolidin-3-yl)-1,6-dihydroimidazo[4,5-d]pyrazolo[3,4-b]pyridin-2-yl)ethan-1-ol], for which the IC50 lay in the range of 100 to 1000 nM against JAK2 and 10 to 100 nM at JAK1.

In the case of `C[C@@H](O)c1nc2cnc3[nH]ccc3c2n1C1CCN(S(=O)(=O)c2ccccc2F)C1` (stereo partly drawn) [LXS07, (1R)-1-(1-(1-((2-fluorophenyl)sulfonyl)pyrrolidin-3-yl)-1,6-dihydroimidazo[4,5-d]pyrrolo[2,3-b]pyridin-2-yl)ethan-1-ol], the IC50 at JAK2 and against JAK1 was 100 to 1000 nM throughout.

As for `C[C@@H](O)c1nc2cnc3[nH]ccc3c2n1[C@H]1CCN(S(=O)(=O)CCC(F)(F)F)C1` [LXS102, (R)-1-(1-((S)-1-((3,3,3-Trifluoropropyl)sulfonyl)pyrrolidin-3-yl)imidazo[4,5-d]pyrrolo[2,3-b]pyridin-2-yl)ethanol], the IC50 is 100 to 1000 nM at JAK2 and less than 10 nM against JAK1.

Consider `C[C@@H](O)c1nc2cnc3[nH]ccc3c2n1[C@H]1CCN(C(F)(F)C(F)(F)C(F)(F)C(F)(F)F)C1` [LXS101, (R)-1-(1-((S)-1-(Perfluoro-butyl)pyrrolidin-3-yl)-1,6-dihydroimidazo[4,5-d]pyrrolo[2,3-b]pyridin-2-yl)ethanol], for which the IC50 was 100 to 1000 nM against JAK2 and less than 10 nM on JAK1.

Regarding `CCS(=O)(=O)N1CC(CC#N)(n2cc(-n3c(-c4ccc(C)s4)nc4cnc5[nH]ccc5c43)cn2)C1` [LXS62, 2-(1-(Ethylsulfonyl)-3-(4-(2-(5-methylthien-2-yl)imidazo[4,5-d]pyrrolo[2,3-b]pyridin-1(6H)-yl)-1H-pyrazol-1-yl)azetidin-3-yl)acetonitrile], the values for the IC50 at JAK2 and against JAK1 were less than 10 nM and 100 to 1000 nM, respectively.

In the case of `Cc1ccc(-c2nc3cnc4[nH]ccc4c3n2-c2cnn(CCCC#N)c2)s1` [LXS105], the IC50 fell in the range of 10 to 100 nM at JAK2 and 100 to 1000 nM at JAK1.

Take `N#CCCn1cc(-n2c(-c3cccs3)nc3cnc4[nH]ccc4c32)cn1` [LXS106, 3-(4-(2-(Thiophen-2-yl)imidazo[4,5-d]pyrrolo[2,3-b]pyridin-1(6H)-yl)-1H-pyrazol-1-yl)propanenitrile]: the IC50 was 10 to 100 nM at JAK2 and 100 to 1000 nM at JAK1.

As to `CS(=O)(=O)c1ccc(C2Nc3cnc4[nH]ccc4c3N2c2cnn(CCC#N)c2)cc1` (stereo not drawn) [LXS67, 3-(4-(2-(4-(Methylsulfonyl)phenyl)-2,3-dihydroimidazo[4,5-d]pyrrolo[2,3-b]pyridin-1(6H)-yl)-1H-pyrazol-1-yl)propanenitrile], the IC50 against JAK2 and against JAK1 was 10 to 100 nM in each case.

On to `N#C[C@H]1CC[C@H](n2c(-c3cnc(N)s3)nc3cnc4[nH]ccc4c32)CC1` (stereo in doubt) [LXS27, trans-4-(2-(2-Aminothiazol-5-yl)imidazo[4,5-d]pyrrolo[2,3-b]pyridin-1(6H)-yl)cyclohexanecarbonitrile], for which the IC50 against JAK2 and against JAK1 was 10 to 100 nM each time.

`N#CCCn1cc(-n2c(-c3ccccc3Cl)nc3cnc4[nH]ccc4c32)cn1` [LXS80, 3-(4-(2-(2-Chlorophenyl)imidazo[4,5-d]pyrrolo[2,3-b]pyridin-1(6H)-yl)-1H-pyrazol-1-yl)propanenitrile]: the IC50 on JAK2 and against JAK1 was 10 to 100 nM throughout.

On to `N#C[C@H]1CC[C@H](n2c(-c3ccc(F)cc3)nc3cnc4[nH]ccc4c32)CC1` (stereo in doubt) [LXS43, trans-4-(2-(4-Fluorophenyl)imidazo[4,5-d]pyrrolo[2,3-b]pyridin-1(6H)-yl)cyclohexanecarbonitrile], for which the IC50 is 100 to 1000 nM at JAK2 and 10 to 100 nM against JAK1.

On JAK1, `Cc1ccc(-c2nc3cnc4[nH]ccc4c3n2-c2cnn(CCC#N)c2)s1` [LXS84, 3-(4-(2-(5-Methylthiophen-2-yl)imidazo[4,5-d]pyrrolo[2,3-b]pyridin-1(6H)-yl)-1H-pyrazol-1-yl)propanenitrile] displayed an IC50 of 10 to 100 nM.

Consider `C[C@@H](O)c1nc2cnc3[nH]ccc3c2n1C1CCN(C(=O)OC(C)(C)C)C1` (stereo partly drawn) [LXS01, tert-butyl 3-(2-((R)-1-hydroxyethyl)imidazo[4,5-d]pyrrolo[2,3-b]pyridin-1(6H)-yl)pyrrolidine-1-carboxylate], for which the IC50 at JAK2 and against JAK1 was 100 to 1000 nM in each case.

`C[C@@H](O)c1nc2cnc3[nH]ccc3c2n1[C@H]1CCN(CCCC#N)C1` [LXS65, 4-((S)-3-(2-((R)-1-Hydroxyethyl)imidazo[4,5-d]pyrrolo[2,3-b]pyridin-1(6H)-yl)pyrrolidin-1-yl)butanenitrile]: the values for the IC50 against JAK2 and against JAK1 were 100 to 1000 nM and less than 10 nM, respectively.

As to `CCS(=O)(=O)N1CC(CC#N)(n2cc(-n3c(-c4cccs4)nc4cnc5[nH]ccc5c43)cn2)C1` [LXS63, 2-(1-(Ethylsulfonyl)-3-(4-(2-(thiophen-2-yl)imidazo[4,5-d]pyrrolo[2,3-b]pyridin-1(6H)-yl)-1H-pyrazol-1-yl)azetidin-3-yl)acetonitrile], the values for the concentration for half-maximal inhibition (IC50) against JAK2 and against JAK1 were less than 10 nM and 100 to 1000 nM, respectively.

Consider `C[C@@H](O)c1nc2cnc3[nH]ccc3c2n1[C@H]1CCN(CC(=O)NCC(F)(F)F)C1` [LXS74, 2-((S)-3-(2-((R)-1-Hydroxyethyl)imidazo[4,5-d]pyrrolo[2,3-b]pyridin-1(6H)-yl)pyrrolidin-1-yl)-N-(2,2,2-trifluoroethyl)acetamide], for which the IC50 is 100 to 1000 nM against JAK2 and less than 10 nM against JAK1.

Consider `CCCS(=O)(=O)N1CCC(n2c(-c3cccc(O)c3)nc3cnc4[nH]ccc4c32)C1` (stereo not drawn) [LXS32, 3-(1-(1-(propylsulfonyl)pyrrolidin-3-yl)-1,6-dihydroimidazo[4,5-d]pyrrolo[2,3-b]pyridin-2-yl)phenol], for which the IC50 was less than 10 nM against JAK2 and 10 to 100 nM against JAK1.

As for `N#CCn1cc(-n2c(C(F)(F)F)nc3cnc4[nH]ccc4c32)cn1` [LXS78, 2-(4-(2-(Trifluoromethyl)imidazo[4,5-d]pyrrolo[2,3-b]pyridin-1(6H)-yl)-1H-pyrazol-1-yl)acetonitrile], the IC50 at JAK2 and against JAK1 was 10 to 100 nM in each case.

As for `CCCCS(=O)(=O)N1CCC(n2c([C@@H](C)O)nc3cnc4[nH]ccc4c32)C1` (stereo partly drawn) [LXS06, (1R)-1-(1-(1-(butylsulfonyl)pyrrolidin-3-yl)-1,6-dihydroimidazo[4,5-d]pyrrolo[2,3-b]pyridin-2-yl)ethan-1-ol], the IC50 was in the range of 100 to 1000 nM against JAK2 and 10 to 100 nM at JAK1.

As for `CCS(=O)(=O)N1CC(CC#N)(n2cc(-n3c(-c4ccc(C)o4)nc4cnc5[nH]ccc5c43)cn2)C1` [LXS77, 2-(1-(ethylsulfonyl)-3-(4-(2-(5-methylfuran-2-yl)imidazolyl[4,5-d]pyrrolo[2,3-b]pyridin-1(6H)-yl)-1H-pyrazol-1-yl)azetidin-3-yl) acetonitrile], the IC50 at JAK2 is less than 10 nM; against JAK1, 100 to 1000 nM.

Regarding `N#CCCCn1cc(-n2c(C3CC3)nc3cnc4[nH]ccc4c32)cn1` [LXS108, 4-(4-(2-cyclopropylimidazo[4,5-d]pyrrolo[2,3-b]pyridin-1(6H)-yl)-1H-pyrazol-1-yl)butanenitrile], the IC50 against JAK2 was 10 to 100 nM; on JAK1 it was 100 to 1000 nM.

For `C[C@@H](O)c1nc2cnc3[nH]ncc3c2n1[C@@H]1CN(CCCC#N)CC1F` (stereo partly drawn) [LXS93, 4-((4R)-3-Fluoro-4-(2-((R)-1-hydroxyethyl)imidazo[4,5-d]pyrazolo[3,4-b]pyridin-1(6H)-yl)pyrrolidin-1-yl)butanenitrile], the IC50 against JAK2 was 100 to 1000 nM; against JAK1, less than 10 nM.

For `N#C[C@H]1CC[C@H](n2c(-c3ccc(O)cc3O)nc3cnc4[nH]ccc4c32)CC1` (stereo in doubt) [LXS36, trans-4-(2-(2,4-Dihydroxyphenyl)imidazo[4,5-d]pyrrolo[2,3-b]pyridin-1(6H)-yl)cyclohexanecarbonitrile], the IC50 at JAK2 and against JAK1 was 10 to 100 nM each time.

As for `CCS(=O)(=O)N1CCC(n2c([C@@H](C)O)nc3cnc4[nH]ccc4c32)C1` (stereo partly drawn) [LXS04, (1R)-1-(1-(1-(ethylsulfonyl)pyrrolidin-3-yl)-1,6-dihydroimidazo[4,5-d]pyrrolo[2,3-b]pyridin-2-yl)ethan-1-ol], the IC50 lay within 100 to 1000 nM on JAK2 and 10 to 100 nM on JAK1.

In the case of `CCCS(=O)(=O)N1CC(CC#N)(n2cc(-n3c(-c4ccc(CO)o4)nc4cnc5[nH]ccc5c43)cn2)C1` [LXS14, 2-(1-(propylsulfonyl)-3-(4-(2-(5-(hydroxymethyl)furan-2-yl)imidazo[4,5-d]pyrrolo[2,3-b]pyridin-1(6H)-yl)-1H-pyrazol-1-yl)azetidin-3-yl)acetonitrile], on JAK1, the IC50 fell in the range of 100 to 1000 nM.

These data come from US20240383898A1, “PYRIDO RING COMPOUND, PREPARATION METHOD THEREFOR, INTERMEDIATE, COMPOSITION, AND APPLICATION” (YIYOU BIOTECH (SHANGHAI) CO., LTD, priority 2021, published 2024).
